Patent publication US8946203B2, “Benzodioxane inhibitors of leukotriene production” (Boehringer Ingelheim International GmbH, priority 2012, dated 2015)
pIC50: −log10 of the molar value.

Each compound was assayed against T1, human LTA4 hydrolase (Homo sapiens, UniProt P09960) (assay: LTA4H Enzyme assay (cleavage of Arg-AMC, fluorescence)). Conditions: LTA4H Enzyme 1 nM, Arg-AMC substrate 50 μM, room temperature 1 h, fluorescence; read-out: IC50 values of LTA4H Enzyme assay.
T1 sequence (P09960 1-611): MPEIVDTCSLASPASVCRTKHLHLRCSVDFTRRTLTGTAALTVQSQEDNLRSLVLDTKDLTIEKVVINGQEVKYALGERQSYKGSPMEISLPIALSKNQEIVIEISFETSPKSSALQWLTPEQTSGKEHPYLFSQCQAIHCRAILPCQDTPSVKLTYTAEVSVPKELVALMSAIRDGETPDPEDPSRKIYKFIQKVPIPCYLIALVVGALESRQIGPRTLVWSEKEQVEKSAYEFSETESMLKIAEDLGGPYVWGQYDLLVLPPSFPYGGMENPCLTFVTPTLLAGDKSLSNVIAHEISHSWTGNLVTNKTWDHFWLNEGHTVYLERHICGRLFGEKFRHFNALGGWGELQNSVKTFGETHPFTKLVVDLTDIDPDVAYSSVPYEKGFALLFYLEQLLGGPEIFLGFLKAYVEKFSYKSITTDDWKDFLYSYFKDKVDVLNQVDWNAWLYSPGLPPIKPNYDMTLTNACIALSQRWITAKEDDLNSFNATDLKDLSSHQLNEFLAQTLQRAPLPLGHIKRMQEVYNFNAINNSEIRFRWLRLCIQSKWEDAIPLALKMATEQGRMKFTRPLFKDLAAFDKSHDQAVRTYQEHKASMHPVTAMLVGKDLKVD
Type: biochemical
Outline: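 Peptidase activity of human LTA4H (1 nM final) on Arg-AMC (50 μM final), with compound, 1 h at room temperature. Buffer: 50 mM Tris-HCl pH 7.5, 100 mM KCl, 0.5% BSA.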

Row | Structure (SMILES) | pIC50
1 | CN1CCC(N(C)Cc2ccc([C@H]3COc4ccccc4O3)cc2)CC1 [Example 110, N-{4-[(2S)-2,3-dihydro-1,4-benzodioxin-2-yl]benzyl}-N,1-dimethylpiperidin-4-amine] | 8.67
2 | Oc1ccc(CNCc2ccc([C@H]3COc4ccccc4O3)cc2)cc1 [Example 111, 4-[({4-[(2S)-2,3-dihydro-1,4-benzodioxin-2-yl]benzyl}amino)methyl]phenol] | 8.65
3 | Oc1ccc2c(c1)CCN(Cc1ccc([C@H]3COc4ccccc4O3)cc1)C2 [Example 112, 2-{4-[(2S)-2,3-dihydro-1,4-benzodioxin-2-yl]benzyl}-1,2,3,4-tetrahydroisoquinolin-6-ol] | 8.97
4 | O=C1CCC2(CCN(Cc3ccc([C@H]4COc5ccccc5O4)cc3)C2)N1 (stereo partly drawn) [Example 117, 7-{4-[(2S)-2,3-dihydro-1,4-benzodioxin-2-yl]benzyl}-1,7-diazaspiro[4.4]nonan-2-one] | 9.64
5 | NC(=O)N1CCCC12CCN(Cc1ccc([C@H]3COc4ccccc4O3)cc1)C2 (stereo partly drawn) [Example 119, 7-{4-[(2S)-2,3-dihydro-1,4-benzodioxin-2-yl]benzyl}-1,7-diazaspiro[4.4]nonane-1-carboxamide] | 10.00
6 | CN1CCCC2(CCN(Cc3ccc([C@H]4COc5ccccc5O4)cc3)CC2)C1=O [Example 120, 9-{4-[(2S)-2,3-dihydro-1,4-benzodioxin-2-yl]benzyl}-2-methyl-2,9-diazaspiro[5.5]undecan-1-one] | 9.29
7 | CS(=O)(=O)N1CCCC12CCN(Cc1ccc([C@H]3COc4ccccc4O3)cc1)C2 (stereo partly drawn) [Example 122, 7-{4-[(2S)-2,3-dihydro-1,4-benzodioxin-2-yl]benzyl}-1-(methylsulfonyl)-1,7-diazaspiro[4.4]nonane] | 9.04
8 | N#CCN1CCCC12CCN(Cc1ccc([C@H]3COc4ccccc4O3)cc1)C2 (stereo partly drawn) [Example 124, (7-{4-[(2S)-2,3-dihydro-1,4-benzodioxin-2-yl]benzyl}-1,7-diazaspiro[4.4]non-1-yl)acetonitrile] | 8.61
9 | O=C1CCC2(CCN(Cc3ccc([C@H]4COc5cccnc5O4)cc3)C2)N1 (stereo partly drawn) [Example 127, 7-{4-[(3S)-2,3-dihydro[1,4]dioxino[2,3-b]pyridin-3-yl]benzyl}-1,7-diazaspiro[4.4]nonan-2-one] | 9.92
10 | COCC(=O)N1CCCC12CCN(Cc1ccc([C@H]3COc4ccccc4O3)cc1)C2 (stereo partly drawn) [Example 128, 1-(7-{4-[(2S)-2,3-dihydro-1,4-benzodioxin-2-yl]benzyl}-1,7-diazaspiro[4.4]non-1-yl)-2-methoxyethanone] | 9.19
11 | CN1CCCC2(CCN(Cc3ccc([C@H]4COc5ccccc5O4)cc3)CC2)C1=O [Example 130, 9-[(S)-4-(2,3-Dihydro-benzo[1,4]dioxin-2-yl)-benzyl]-2-methyl-2,9-diaza-spiro[5.5]undecan-1-one] | 9.29
12 | O=C1CCN(Cc2ccc([C@H]3COc4ccccc4O3)cc2)CCN1 [Example 131, 1-{4-[(2S)-2,3-dihydro-1,4-benzodioxin-2-yl]benzyl}-1,4-diazepan-5-one] | 8.76
13 | c1cnc2c(c1)OC[C@H](c1ccc(CNC3CCCC3)cc1)O2 [Example 135, N-{4-[(3S)-2,3-dihydro[1,4]dioxino[2,3-b]pyridin-3-yl]benzyl}cyclopentanamine] | 9.33
14 | OCCCC1CCN(Cc2ccc([C@H]3COc4cccnc4O3)cc2)CC1 [Example 149, 3-(1-{4-[(3S)-2,3-dihydro[1,4]dioxino[2,3-b]pyridin-3-yl]benzyl}piperidin-4-yl)propan-1-ol] | 9.62
15 | O=C(O)CCCC1CCN(Cc2ccc([C@H]3COc4cccnc4O3)cc2)CC1 [Example 151, 4-(1-{4-[(3S)-2,3-dihydro[1,4]dioxino[2,3-b]pyridin-3-yl]benzyl}piperidin-4-yl)butanoic acid] | 10.00
16 | CNC(=O)C1CCN(Cc2ccc([C@H]3COc4cccnc4O3)cc2)CC1 [Example 152, 1-{4-[(3S)-2,3-dihydro[1,4]dioxino[2,3-b]pyridin-3-yl]benzyl}-N-methylpiperidine-4-carboxamide] | 9.77
17 | CC(=O)N1CCC(NCc2ccc([C@H]3COc4cccnc4O3)cc2)CC1 [Example 153, 1-[4-({4-[(3S)-2,3-dihydro[1,4]dioxino[2,3-b]pyridin-3-yl]benzyl}amino)piperidin-1-yl]ethanone] | 9.09
18 | O=C(NCCO)C1CCN(Cc2ccc([C@H]3COc4cccnc4O3)cc2)CC1 [Example 154, 1-{4-[(3S)-2,3-dihydro[1,4]dioxino[2,3-b]pyridin-3-yl]benzyl}-N-(2-hydroxyethyl)piperidine-4-carboxamide] | 9.70
19 | CC(C)(CN1CCCC1)NCc1ccc([C@H]2COc3cccnc3O2)cc1 [Example 157, N-{4-[(3S)-2,3-dihydro[1,4]dioxino[2,3-b]pyridin-3-yl]benzyl}-2-methyl-1-(pyrrolidin-1-yl)propan-2-amine] | 9.74
20 | O=C(C1CCN(Cc2ccc([C@H]3COc4cccnc4O3)cc2)CC1)N1CCOCC1 [Example 162, (1-{4-[(3S)-2,3-dihydro[1,4]dioxino[2,3-b]pyridin-3-yl]benzyl}piperidin-4-yl)(morpholin-4-yl)methanone] | 9.85
21 | O=C1CCCN1CC1CCCN(Cc2ccc([C@H]3COc4cccnc4O3)cc2)C1 (stereo partly drawn) [Example 163, 1-[(1-{4-[(3S)-2,3-dihydro[1,4]dioxino[2,3-b]pyridin-3-yl]benzyl}piperidin-3-yl)methyl]pyrrolidin-2-one] | 9.77
22 | O=C1NC(=O)C2(CCN(Cc3ccc([C@H]4COc5cccnc5O4)cc3)CC2)N1 [Example 165, 8-{4-[(3S)-2,3-dihydro[1,4]dioxin[2,3-b]pyridin-3-yl]benzyl}-1,3,8-triazaspiro[4.5]decane-2,4-dione] | 9.89
23 | COC1CN(Cc2ccc([C@H]3COc4cccnc4O3)cc2)C1 [Example 166, (3S)-3-{4-[(3-methoxyazetidin-1-yl)methyl]phenyl}-2,3-dihydro[1,4]dioxino[2,3-b]pyridine] | 9.17
24 | CS(=O)(=O)N1CCC(NCc2ccc([C@H]3COc4cccnc4O3)cc2)CC1 [Example 167, N-{4-[(3S)-2,3-dihydro[1,4]dioxino[2,3-b]pyridin-3-yl]benzyl}-1-(methylsulfonyl)piperidin-4-amine] | 9.57

Continued, values first:

Row | pIC50 | Structure (SMILES)
25 | 9.64 | CN1CCC2(CCN(Cc3ccc([C@H]4COc5cccnc5O4)cc3)CC2)C1=O [Example 129, 8-{4-[(3S)-2,3-dihydro[1,4]dioxino[2,3-b]pyridin-3-yl]benzyl}-2-methyl-2,8-diazaspiro[4.5]decan-1-one]
26 | 9.04 | O=C1CCN(Cc2ccc([C@H]3COc4cccnc4O3)cc2)CCN1 [Example 132, 1-{4-[(3S)-2,3-dihydro[1,4]dioxino[2,3-b]pyridin-3-yl]benzyl}-1,4-diazepan-5-one]
27 | 9.72 | NC(=O)C1CCCN(Cc2ccc([C@H]3COc4cccnc4O3)cc2)C1 (stereo partly drawn) [Example 136, 1-{4-[(3S)-2,3-dihydro[1,4]dioxin[2,3-b]pyridin-3-yl]benzyl}piperidine-3-carboxamide]
28 | 9.52 | CN1CCCN(Cc2ccc([C@H]3COc4cccnc4O3)cc2)CC1 [Example 143, (3S)-3-{4-[(4-methyl-1,4-diazepan-1-yl)methyl]phenyl}-2,3-dihydro[1,4]dioxino[2,3-b]pyridine]
29 | 9.85 | O[C@@H]1CCN(Cc2ccc([C@H]3COc4cccnc4O3)cc2)C1 [Example 144, (3R)-1-{4-[(3S)-2,3-dihydro[1,4]dioxino[2,3-b]pyridin-3-yl]benzyl}pyrrolidin-3-ol]
30 | 9.54 | OCC1CCN(Cc2ccc([C@H]3COc4cccnc4O3)cc2)CC1 [Example 146, (1-{4-[(3S)-2,3-dihydro[1,4]dioxino[2,3-b]pyridin-3-yl]benzyl}piperidin-4-yl)methanol]
31 | 9.46 | O[C@H]1CCN(Cc2ccc([C@H]3COc4cccnc4O3)cc2)C1 [Example 147, (3S)-1-{4-[(3S)-2,3-dihydro[1,4]dioxino[2,3-b]pyridin-3-yl]benzyl}pyrrolidin-3-ol]
32 | 9.55 | CC(=O)N1CCCN(Cc2ccc([C@H]3COc4cccnc4O3)cc2)CC1 [Example 148, 1-(4-{4-[(3S)-2,3-dihydro[1,4]dihydro[2,3-b]pyridin-3-yl]benzyl}-1,4-diazepan-1-yl)ethanone]
33 | 9.68 | c1cnc2c(c1)OC[C@H](c1ccc(CN3CCCOCC3)cc1)O2 [Example 150, (3S)-3-[4-(1,4-oxazepan-4-ylmethyl)phenyl]-2,3-dihydro[1,4]dioxino[2,3-b]pyridine]
34 | 9.80 | N#CC1CCN(Cc2ccc([C@H]3COc4cccnc4O3)cc2)CC1 [Example 159, 1-{4-[(3S)-2,3-dihydro[1,4]dioxino[2,3-b]pyridin-3-yl]benzyl}piperidine-4-carbonitrile]
35 | 9.39 | O=S1(=O)CCN(Cc2ccc([C@H]3COc4cccnc4O3)cc2)CC1 [Example 161, (3S)-3-{4-[(1,1-dioxidothiomorpholin-4-yl)methyl]phenyl}-2,3-dihydro[1,4]dioxino[2,3-b]pyridine]
